# From paper PMC10892120, “Design, Synthesis and Biological Assessment of N′-(2-Oxoindolin-3-ylidene)-6-methylimidazo[2,1-b]thiazole-5-carbohydrazides as Potential Anti-Proliferative Agents toward MCF-7 Breast Cancer” (Pharmaceuticals, 2024)
# What was measured:
# Assay type in all cases: cell-based
# Settings in all cases: treated MCF-7 cells vs untreated control MCF-7 (=1)
# Caspase-9 = experiment: RT-PCR gene expression in treated MCF-7 cells: caspase 9
# Description: (§1) The gene expression levels of apoptosis genes in MCF-7 cells were measured using RT-PCR to validate the apoptosis-inducing behaviors of the potent lead compound 6i in MCF-7 cells.
# (§2) The gene expression levels of apoptosis genes were evaluated in MCF-7 cells using the following approaches in the Supplementary Data, page 43.
# (§3) Inhibitor solution of each well labeled as “Test Inhibitor”. For the “Positive Control" and “Blank”, add 5 μl of the same solution without inhibitor (Inhibitor buffer). Prepare 3 ml of 1x Kinase Buffer 1 by mixing 600 μl of 5x Kinase Buffer 1 with 2400 μl water. 3 ml of 1x Kinase Buffer 1 is sufficient for 100 reactions. To the wells designated as "Blank", add 20 μl of 1x Kinase Buffer 1.
# (§4) Thaw VEGFR2 enzyme on ice. Upon first thaw, briefly spin tube containing enzyme to recover full content of the tube. Calculate the amount of VEGFR2 required for the assay and dilute enzyme to 1 ng/μl with 1x Kinase Buffer 1. Store remaining undiluted enzyme in aliquots at -80°C. Note:
# (§5) VEGFR2 enzyme is sensitive to freeze/thaw cycles. Avoid multiple freeze/thaw cycles. […]
# (§6) use thawed aliquots or diluted enzyme. […]
# (§7) thoroughly, and then centrifuge at 4°C to collect contents to the bottom of the tube. […] Preparation of a reaction cocktail is crucial in quantitative PCR applications to reduce pipetting errors and maximize assay precision and accuracy. […]
# Cytochrome C = experiment: RT-PCR gene expression in treated MCF-7 cells: cytochrome C
# Description: as §1, §2, §3, §4, §5, §6, §7
# Bax = experiment: RT-PCR gene expression in treated MCF-7 cells: Bax
# Description: as §1, §2, §3, §4, §5, §6, §7
structure (smiles),measurement,setting,value
"CCCCN1C(=O)C(=NNC(=O)c2c(C)nc3sccn23)c2ccccc21 [Compound 6i, N′-(1-Butyl-2-oxoindolin-3-ylidene)-6-methylimidazo[2,1-b]thiazole-5-carbohydrazide]",RT-PCR Fold Change Caspase-9,Caspase-9,4.947 fold
same,RT-PCR Fold Change Cytochrome C,Cytochrome C,2.420 fold
same,RT-PCR Fold Change Bax,Bax,4.337 fold
